Test results as given in patent US20230094922A1, “METHODS OF THERAPEUTIC PROGNOSTICATION” (GENETIKAPLUS LTD., priority 2020, published 2023).

System: iPSC-derived cortical neurons
Assay type: cell-based
Details: responders vs non-responders after 10 μM Bupropion

CC(NC(C)(C)C)C(=O)c1cccc(Cl)c1 (stereo not drawn) [Bupropion, 3-Chloro-N-tert-butyl-β-keto-α-methylphenethylamin]
logFC PARP6 (NS): −0.681 | logFC PCBP4 (NS): −1.293 | logFC PCDH10 (NS): −1.015 | logFC PCSK1N (NS): −1.46 | logFC PDYN (NS): −1.613 | logFC PGM2L1 (NS): −1.008 | logFC PHACTR3 (NS): −1.439 | logFC PID1 (NS): −1.455 | logFC PIK3R1 (NS): −0.9783 | logFC PITPNC1 (NS): −0.8298 | logFC PITPNM2 (NS): −0.7259 | logFC PKIA (NS): −1.194 | logFC PLPPR2 (NS): −0.974 | logFC PNMA3 (NS): −1.221 | logFC PPEF1 (NS): −1.59 | logFC PPFIA2 (NS): −1.898 | logFC PPFIA3 (NS): −0.735 | logFC PPM1K (NS): −0.7077 | logFC PPP1R13B (NS): −1.191 | logFC PPP2R2B (NS): −1.116 | logFC PPP2R2C (NS): −1.735 | logFC PPP2R5B (NS): −1.051 | logFC PRDM8 (NS): −2.418 | logFC PSD (NS): −1.027 | logFC PSD2 (NS): −1.447 | logFC PTPRH (NS): −1.255 | logFC PTPRN2 (NS): −1.272 | logFC PTPRR (NS): −1.517 | logFC RAB3A (NS): −1.354 | logFC RAB3C (NS): −1.236 | logFC RAB6B (NS): −1.225 | logFC RAB33A (NS): −1.51 | logFC RAP1GAP (NS): −0.7191 | logFC RASGEF1B (NS): −1.168 | logFC RBFOX1 (NS): −1.576 | logFC RBFOX3 (NS): −1.575 | logFC RBP4 (NS): −2.21 | logFC RCAN2 (NS): −1.602 | logFC REM2 (NS): −1.186 | logFC RETREG2 (NS): −0.5717 | logFC RGR (NS): −2.072 | logFC RGS7 (NS): −1.689 | logFC RHBDL3 (NS): −1.325 | logFC RHOBTB2 (NS): −0.7317 | logFC RIMS1 (NS): −1.83 | logFC RIT2 (NS): −2.318 | logFC RNF152 (NS): −1.135 | logFC RNF165 (NS): −0.9556 | logFC RPS6KA2 (NS): −0.8831 | logFC RTN1 (NS): −1.456 | logFC RUFY3 (NS): −0.7072 | logFC RUNDC3B (NS): −1.512 | logFC RUNX1T1 (NS): −1.916 | logFC RXRG (NS): −1.776 | logFC SAMD14 (NS): −1.111 | logFC SARM1 (NS): −1.209 | logFC SCAPER (NS): −0.7606 | logFC SCG2 (NS): −1.691 | logFC SCG3 (NS): −1.431 | logFC SCN1A (NS): −1.947 | logFC SCN2A (NS): −1.841 | logFC SCN3B (NS): −1.722 | logFC SCN7A (NS): −1.457 | logFC SCN9A (NS): −1.803 | logFC SEPTIN3 (NS): −1.333 | logFC SERP2 (NS): −1.449 | logFC SEZ6L (NS): −1.45 | logFC SEZ6L2 (NS): −0.7768 | logFC SHANK1 (NS): −1.292 | logFC SHISAL1 (NS): −1.498 | logFC SHISAL2A (NS): −1.16 | logFC SIDTI (NS): −2.103 | logFC SIT1 (NS): −1.927 | logFC SLC4A8 (NS): −0.8668 | logFC SLC7A14 (NS): −1.705 | logFC SLC8A3 (NS): −1.496 | logFC SLC17A6 (NS): −2.069 | logFC SLC22A15 (NS): −0.9589 | logFC SLC22A23 (NS): −1.148 | logFC SLC37A1 (NS): −1.052 | logFC SLC38A4 (NS): −1.273 | logFC SLCO2B1 (NS): −1.491 | logFC SLCO5A1 (NS): −1.211 | logFC SLITRK1 (NS): −1.312 | logFC SMAP2 (NS): −0.8196 | logFC SMPD3 (NS): −1.445 | logFC SNAP91 (NS): −1.605 | logFC SNCB (NS): −1.524 | logFC SNCG (NS): −1.396 | logFC SNPH (NS): −1.134 | logFC SNTG1 (NS): −2.048 | logFC SPNS2 (NS): −1.211 | logFC SPTBN4 (NS): −1.122 | logFC SRRM3 (NS): −1.175 | logFC SSTR2 (NS): −1.449 | logFC ST8SIA2 (NS): −1.153 | logFC STK32B (NS): −1.644 | logFC STX1B (NS): −0.9907 | logFC STXBP1 (NS): −1.033 | logFC SV2A (NS): −0.9341 | logFC SYN1 (NS): −1.543 | logFC SYNGR1 (NS): −0.8271 | logFC SYP (NS): −1.709 | logFC SYT1 (NS): −1.058 | logFC SYT7 (NS): −1.505 | logFC SYT13 (NS): −1.444 | logFC TAC1 (NS): −1.101 | logFC TAFA1 (NS): −2.193 | logFC TAGLN3 (NS): −1.002 | logFC TANC2 (NS): −0.7278 | logFC TBC1D24 (NS): −0.8527 | logFC TERF2IP (NS): −0.7455 | logFC TH (NS): −1.664 | logFC THRB (NS): −2.357 | logFC TIMP2 (NS): −0.878 | logFC TLCD3B (NS): −1.431 | logFC TMEM59L (NS): −0.8819 | logFC TMEM121B (NS): −0.8958 | logFC TMEM132B (NS): −1.025 | logFC TMEM151A (NS): −1.522 | logFC TMEM151B (NS): −1.463 | logFC TMEM178A (NS): −0.904 | logFC TMEM246 (NS): −1.159 | logFC TOM1L2 (NS): −0.7199 | logFC TP53I11 (NS): −0.8407 | logFC TP53INP2 (NS): −1.177 | logFC TPPP (NS): −1.04 | logFC TRIB2 (NS): −0.7077 | logFC TRIM9 (NS): −1.352 | logFC TSPAN7 (NS): −1.098 | logFC TSPYL5 (NS): −1.843 | logFC TTBK1 (NS): −1.374 | logFC TUBB2B (NS): −0.7583 | logFC TVP23A (NS): −1.064 | logFC VPS26B (NS): −0.6245 | logFC VSTM2A (NS): −1.971 | logFC VWA5B2 (NS): −1.111 | logFC VXN (NS): −1.527 | logFC WDR47 (NS): −0.8343 | logFC WDR82 (NS): −0.4862 | logFC WNK2 (NS): −0.7608 | logFC WSB2 (NS): −0.8644 | logFC ZC3HAV1L (NS): −2.186 | logFC ZDHHC22 (NS): −1.455 | logFC ZFP3 (NS): −1.933 | logFC ZNF385A (NS): −0.8795 | logFC ZNF439 (NS): −2.201 | logFC ABCC6 (p<0.01): −0.5461 | logFC ADAMTS4 (p<0.01): −0.723 | logFC ADAMTS8 (p<0.01): −1.658 | logFC ADAMTS15 (p<0.01): −1.743 | logFC ADAMTSL1 (p<0.01): −1.46 | logFC ADAMTSL2 (p<0.01): −1.833 | logFC ALDOC (p<0.01): −0.6635 | logFC APOL2 (p<0.01): −0.6452 | logFC AQP6 (p<0.01): −1.137 | logFC ARHGAP23 (p<0.01): −0.5891 | logFC ARHGEF28 (p<0.01): −0.916 | logFC ARL17B (p<0.01): −1.232 | logFC ASPN (p<0.01): −3.695 | logFC BDKRB2 (p<0.01): −1.475 | logFC C1R (p<0.01): −1.32 | logFC C5orf63 (p<0.01): −1.211 | logFC CABP7 (p<0.01): −1.06 | logFC CACNA1H (p<0.01): −0.5137 | logFC CCDC183 (p<0.01): −0.5281 | logFC CCDC187 (p<0.01): −1.023 | logFC CCER2 (p<0.01): −0.8431 | logFC CD151 (p<0.01): −0.4377 | logFC CDKN1C (p<0.01): −0.6211 | logFC CEMIP (p<0.01): −2.321 | logFC CHST8 (p<0.01): −1.474 | logFC COL1A1 (p<0.01): −1.88 | logFC COL6A1 (p<0.01): −0.5639 | logFC COL8A2 (p<0.01): −2.755 | logFC COL15A1 (p<0.01): −2.224 | logFC CPA4 (p<0.01): −2.791 | logFC CPNE5 (p<0.01): −0.937 | logFC CXCL2 (p<0.01): −1.783 | logFC CXCL6 (p<0.01): −2.412 | logFC CXCL8 (p<0.01): −3.086 | logFC DHRS3 (p<0.01): −1.126 | logFC DRGX (p<0.01): −4.337 | logFC DYRK1B (p<0.01): −0.3984 | logFC EFEMP2 (p<0.01): −0.7929 | logFC EGFLAM (p<0.01): −1.798 | logFC ELN (p<0.01): −2.048 | logFC EPHB3 (p<0.01): −0.4956 | logFC EYA2 (p<0.01): −0.955 | logFC FAM20C (p<0.01): −0.6923 | logFC FBLN5 (p<0.01): −1.918 | logFC FMOD (p<0.01): −2.269 | logFC FNDC5 (p<0.01): −0.7008 | logFC FRMPD1 (p<0.01): −2.303 | logFC GAA (p<0.01): −0.4856 | logFC GALNT14 (p<0.01): −1.152 | logFC GLIS2 (p<0.01): −0.5025 | logFC GPBAR1 (p<0.01): −0.9131 | logFC HCN1 (p<0.01): −2.181 | logFC HES6 (p<0.01): −1.04 | logFC HMX1 (p<0.01): −1.478 | logFC HOXB5 (p<0.01): −2.739 | logFC HS3ST2 (p<0.01): −1.228 | logFC HS6ST1 (p<0.01): −0.6264 | logFC IAH1 (p<0.01): −0.789 | logFC IGFBP5 (p<0.01): −0.9814 | logFC IL17RC (p<0.01): −0.5333 | logFC INHBB (p<0.01): −1.748 | logFC INMT (p<0.01): −1.061 | logFC IRF2BPL (p<0.01): −0.3835 | logFC ISLR (p<0.01): −1.646 | logFC ITPRIP (p<0.01): −0.5931 | logFC JOSD2 (p<0.01): −0.7377 | logFC KCNA1 (p<0.01): −3.416 | logFC KCNJ5 (p<0.01): −1.028 | logFC KDM4B (p<0.01): −0.331 | logFC KHDC1 (p<0.01): −0.7724 | logFC KIF26A (p<0.01): −0.5135 | logFC KLHL35 (p<0.01): −1.144 | logFC LGALS3BP (p<0.01): −0.9602 | logFC LOXL1 (p<0.01): −0.6236 | logFC LRFN5 (p<0.01): −0.6816 | logFC LURAP1L (p<0.01): −1.086 | logFC LYPD1 (p<0.01): −0.7703 | logFC MAB21L2 (p<0.01): −0.9329 | logFC MAFB (p<0.01): −0.573 | logFC MCC (p<0.01): −0.8548 | logFC MGP (p<0.01): −2.67 | logFC MKX (p<0.01): −1.878 | logFC MX2 (p<0.01): −1.618 | logFC NDUFA4L2 (p<0.01): −0.8379 | logFC NFIX (p<0.01): −2.446 | logFC NNMT (p<0.01): −2.326 | logFC NPR2 (p<0.01): −0.5942 | logFC NTNG2 (p<0.01): −1.161 | logFC OGFR (p<0.01): −0.318 | logFC OLFML2B (p<0.01): −1.03 | logFC OPRK1 (p<0.01): −0.939 | logFC OPRM1 (p<0.01): −1.985 | logFC OPTN (p<0.01): −0.44 | logFC OTOG (p<0.01): −1.855 | logFC P4HA3 (p<0.01): −2.239 | logFC PADI2 (p<0.01): −1.485 | logFC PALM (p<0.01): −0.581 | logFC PARP10 (p<0.01): −1.041 | logFC PENK (p<0.01): −1.977 | logFC PHOX2B (p<0.01): −2.192 | logFC PIEZO2 (p<0.01): −2.464 | logFC PIRT (p<0.01): −3.199 | logFC PLAC9 (p<0.01): −1.585
